{"source": "patent US8097440B1", "about": "“Engineered microorganisms capable of producing target compounds under anaerobic conditions” (Gevo, Inc., priority 2008, dated 2012)", "format_in_all_cases": "biochemical", "key": {"[1]": {"target": "T1, E. coli KARI Ec_IlvC variant Ec_IlvC^2H10-his6 (A71S, R76D, S78D, Q110A), SEQ ID NO: 31 (Escherichia coli, UniProt P05793, A71S/Q110A/R76D/S78D)", "T1 construct": "T37 values cited for the gene on pGV1976", "T1 sequence (P05793 with tags, fused parts or gaps A71S/R76D/S78D/Q110A)": "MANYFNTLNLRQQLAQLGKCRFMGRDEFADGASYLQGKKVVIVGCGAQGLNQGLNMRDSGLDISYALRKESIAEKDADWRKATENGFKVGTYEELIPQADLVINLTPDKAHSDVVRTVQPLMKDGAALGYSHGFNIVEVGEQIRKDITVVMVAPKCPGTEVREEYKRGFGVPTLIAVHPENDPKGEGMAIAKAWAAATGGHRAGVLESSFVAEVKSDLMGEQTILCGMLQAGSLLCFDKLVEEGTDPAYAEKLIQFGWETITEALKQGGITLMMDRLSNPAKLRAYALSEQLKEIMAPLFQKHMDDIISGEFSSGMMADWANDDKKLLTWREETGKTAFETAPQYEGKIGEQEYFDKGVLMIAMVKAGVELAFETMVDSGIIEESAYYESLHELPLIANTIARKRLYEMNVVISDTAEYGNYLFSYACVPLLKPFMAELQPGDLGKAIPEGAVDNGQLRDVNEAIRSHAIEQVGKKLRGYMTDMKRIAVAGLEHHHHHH", "assay": "KARI assay, purified Ec_IlvC^2H10-his6", "conditions": "acetolactate as substrate", "procedure": "KARI cuvette assay: KARI activity was assayed kinetically by monitoring the decrease in NAD(P)H concentration by measuring the absorbance at 340 nm. A reaction buffer was prepared containing 250 mM potassium phosphate pH 7, 1 mM DTT and 10 mM MgCl2. Cell pellets were resuspended (0.25 g wet weight/mL buffer) in 250 mM potassium phosphate (KPi) buffer containing 1 mM DTT and 10 mM MgCl2. The resuspended cells were lysed by sonication for 1 min with a 50% duty cycle and pelleted at 11000×g and 4° C. for 15 min. A reaction mixture consisting of 910 μl reaction buffer, 50 μl acetolactate, and 20 μl lysate was prepared in a cuvette. […]\nOnly 20% of the enzymes of the recombination library were active on NADH. After screening 1,000 clones using the NADH depletion assay at 340 nm, 26 KARI variants were selected for a rescreen by the high-throughput assay described in Example 14 and eight thereof were expressed in 25 ml LBamp medium in shake flasks according to the protocol for cell growth and protein expression in shake flasks as described in Example 14, purified according to the protocol for purification of KARI enzymes as described in Example 14, and NAD(P)H depletion at 340 nm was measured again. […] The KM values of variants Ec_llvC^2H10-his6 and Ec_llvC^6E6-his6 were measured and the catalytic efficiencies were calculated."}, "[2]": {"target": "T2, E. coli KARI Ec_IlvC variant Ec_IlvC^Q110V-his6 (Q110V), SEQ ID NO: 23 (Escherichia coli, UniProt P05793, Q110V)", "T2 sequence (P05793 with tags, fused parts or gaps Q110V)": "T1 sequence (P05793 with tags, fused parts or gaps A71S/R76D/S78D/Q110A) with S71A, D76R, D78S, A110V", "assay": "KARI cuvette assay, purified Ec_IlvC^Q110V-his6", "conditions": "relative to Ec_IlvC^his6 with NADPH", "procedure": "(§1) KARI cuvette assay: KARI activity was assayed kinetically by monitoring the decrease in NAD(P)H concentration by measuring the absorbance at 340 nm. A reaction buffer was prepared containing 250 mM potassium phosphate pH 7, 1 mM DTT and 10 mM MgCl2. Cell pellets were resuspended (0.25 g wet weight/mL buffer) in 250 mM potassium phosphate (KPi) buffer containing 1 mM DTT and 10 mM MgCl2. The resuspended cells were lysed by sonication for 1 min with a 50% duty cycle and pelleted at 11000×g and 4° C. for 15 min. A reaction mixture consisting of 910 μl reaction buffer, 50 μl acetolactate, and 20 μl lysate was prepared in a cuvette. The reaction was initiated by addition of 20 μL of 10 mM NAD(P)H. A substrate free control was conducted using reaction buffer without the addition of acetolactate.\n(§2) Purification of KARI: Cell pellets used for purification were resuspended in purification buffer A (20 mM Tris, 20 mM imidazol, 100 mM NaCl, 10 mM MgCl2, pH 7.4). KARI was purified by IMAC (Immobilized metal affinity chromatography) over a 1 ml Histrap High Performance (histrap HP) column pre-charged with Nickel (GE Healthcare) using an Akta FPLC system (GE Healthcare). […]"}, "[3]": {"target": "T3, E. coli KARI Ec_IlvC variant Ec_IlvC^S78D-his6 (S78D), SEQ ID NO: 17 (Escherichia coli, UniProt P05793, S78D)", "T3 sequence (P05793 with tags, fused parts or gaps S78D)": "T1 sequence (P05793 with tags, fused parts or gaps A71S/R76D/S78D/Q110A) with S71A, D76R, A110Q", "assay": "KARI cuvette assay, purified Ec_IlvC^S78D-his6", "conditions": "relative to Ec_IlvC^his6 with NADPH", "procedure": "as §1, §2"}}, "note": "Residue numbers refer to the chain shown, from its start.", "data": [{"smiles": "NC(=O)C1=CN([C@@H]2O[C@H](COP(=O)(O)OP(=O)(O)OC[C@H]3O[C@@H](n4cnc5c(N)ncnc54)[C@H](O)[C@@H]3O)[C@@H](O)[C@H]2O)C=CC1", "note": "[NADH, nicotinamide adenine dinucleotide]", "values": [{"measurement": "kcat/KM", "setting": "[1]", "value": "60,322 M^−1 * s^−1"}, {"measurement": "(kcat/KM with NADH)/(kcat/KM of Ec_IlvC^his6 with NADPH)", "setting": "[2]", "value": 28, "unit": "%"}, {"measurement": "(kcat/KM with NADH)/(kcat/KM of Ec_IlvC^his6 with NADPH)", "setting": "[3]", "value": 32, "unit": "%"}]}]}
